Results on one molecule are retold here after patent US5326902A, “Oxyalkyne compounds, pharmaceutical compositions containing them and processes for preparing such compounds and compositions” (Gruenenthal GmbH, priority 1992, dated 1994).

One assay addresses T1, 12-lipoxygenase (Homo sapiens, UniProt P18054).
T1 sequence (P18054 1-663): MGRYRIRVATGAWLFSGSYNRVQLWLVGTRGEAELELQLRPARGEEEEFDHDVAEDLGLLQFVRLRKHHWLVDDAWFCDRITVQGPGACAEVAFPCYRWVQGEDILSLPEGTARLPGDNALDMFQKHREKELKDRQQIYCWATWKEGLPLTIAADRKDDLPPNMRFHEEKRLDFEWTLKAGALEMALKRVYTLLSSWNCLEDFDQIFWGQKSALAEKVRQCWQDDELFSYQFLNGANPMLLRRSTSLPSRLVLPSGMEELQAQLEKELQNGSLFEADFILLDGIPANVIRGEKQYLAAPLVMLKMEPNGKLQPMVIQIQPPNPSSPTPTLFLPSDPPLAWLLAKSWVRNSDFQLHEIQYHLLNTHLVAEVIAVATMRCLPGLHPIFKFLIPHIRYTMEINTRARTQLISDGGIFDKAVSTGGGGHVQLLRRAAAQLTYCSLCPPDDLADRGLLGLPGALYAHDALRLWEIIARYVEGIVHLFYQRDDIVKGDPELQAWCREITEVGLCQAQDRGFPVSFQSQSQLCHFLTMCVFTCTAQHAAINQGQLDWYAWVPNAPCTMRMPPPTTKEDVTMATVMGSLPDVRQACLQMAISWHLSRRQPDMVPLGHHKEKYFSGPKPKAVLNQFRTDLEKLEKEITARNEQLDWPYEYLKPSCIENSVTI
Briefly: Inhibition of 12-lipoxygenase in homogenates of human thrombocytes. The conditions noted are these: arachidonic acid 40 μM, indomethacin 10 μM, 25° C., read-out: IC50-value of the inhibitory action on 12-Lipoxygenase. The format is biochemical. The protocol: Human thrombocytes were suspended at 3×10^9 cells/ml, fumigated with nitrogen, and sonicated with ultrasonic energy while cooling in ice water. After centrifugation at 10.000 × g for 15 minutes, reduced glutathione (3 mM) was added. 1 ml portions of the 10,000 × g supernatant were incubated with a compound according to the invention or with ethanol at 25° C. for 4 minutes and then with 1-^14 C-labelled arachidonic acid (40 μM) for 7.5 minutes. In addition, indomethacin (10 μM) was added to each sample. The reaction was stopped by adding acetic acid, and then the metabolites of arachidonic acid were extracted with ethyl acetate and analyzed by thin layer chromatography. The distribution of the […] fractions was measured using a TLC-linear analyzer. The IC50 -values were determined graphically from semilogarithmic plots. The IC50 -value of the inhibitory action on 12-Lipoxygenase was 1 μmolar when the compound prepared according to Example 1 was used.

The test system of assay [1] is bronchoconstriction elicited by ovalbumin. Description: Allergen-induced bronchoconstriction in guinea pigs (Konzett-Rossler). The conditions noted are these: Cavia porcellus, 1 h; oral, 60 minutes before ovalbumin (0.2 mg/kg intravenous); passively sensitized guinea pigs; read-out: ED40-Value (40% average inhibition of the bronchoconstriction elicited by ovalbumin). The class given is in vivo, guinea pig. How it is done: The anti-asthmatic effect of compounds according to the invention was tested in anesthetized and ventilated guinea pigs. To induce an asthmatic reaction, the animals were passively sensitized by a single intraperitoneal injection of anti-ovalbumin serum. After 48 hours, the asthmatic reaction was elicited by intravenous challenge with 0.2 mg/kg of ovalbumin. The immediately resulting bronchoconstriction was measured as an increase in intratracheal pressure. Effects caused by histamine, serotonin and sympathic counterreaction were eliminated by intravenous pretreatment with 2.15 mg/kg of mepyramine, 46.4 μg/kg of propranolol, 4.64 mg/kg of atropine and 1 mg/kg of methysergide, all administered 5 minutes before challenge. Compounds according to the invention were administered orally 60 minutes before the administration of ovalbumin. The following […] for the inhibition of the bronchoconstriction elicited by ovalbumin, i.e. the effective doses causing a 40% average inhibition of the bronchoconstriction, were determined: […]

The next assay has as its target T2, 5-lipoxygenase (Rattus norvegicus, UniProt P12527).
T2 construct: endogenous in cells; host or cells: RBL-1 cells (rat basophilic leukemia)
T2 sequence (P12527 1-673): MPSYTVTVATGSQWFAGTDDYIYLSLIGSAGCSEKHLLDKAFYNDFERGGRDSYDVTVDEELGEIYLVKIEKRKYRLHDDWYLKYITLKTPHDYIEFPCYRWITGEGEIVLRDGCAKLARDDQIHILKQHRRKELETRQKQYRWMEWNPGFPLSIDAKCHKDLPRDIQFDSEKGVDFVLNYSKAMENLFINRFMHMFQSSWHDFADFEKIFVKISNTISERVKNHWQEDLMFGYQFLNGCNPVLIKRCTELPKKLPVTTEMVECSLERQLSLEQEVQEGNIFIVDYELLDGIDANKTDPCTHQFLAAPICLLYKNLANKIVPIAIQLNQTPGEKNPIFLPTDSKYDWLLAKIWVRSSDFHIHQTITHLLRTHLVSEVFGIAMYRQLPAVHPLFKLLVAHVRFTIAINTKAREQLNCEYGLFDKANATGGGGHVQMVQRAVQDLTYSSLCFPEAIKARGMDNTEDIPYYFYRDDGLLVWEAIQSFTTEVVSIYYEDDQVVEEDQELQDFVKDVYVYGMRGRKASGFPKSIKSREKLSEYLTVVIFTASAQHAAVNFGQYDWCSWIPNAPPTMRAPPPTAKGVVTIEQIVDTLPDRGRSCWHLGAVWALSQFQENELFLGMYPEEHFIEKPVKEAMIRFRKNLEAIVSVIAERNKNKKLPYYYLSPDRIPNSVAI
Description: Inhibition of 5-lipoxygenase in RBL-1-cells. The class given is cell-based. The conditions noted are these: 20 μM [14C]-arachidonic acid, 20 μM calcium ionophore A 23 187, 10 minutes.

By IC50 is commonly meant the concentration at which inhibition is half-maximal. `CC(=O)N(O)Cc1ccc(C(O)C#Cc2ccccc2)cc1` (racemic) [Example 1, N-Hydroxy-N-[4-[1-hydroxy-3-phenyl-prop-2-yn-1-yl]benzyl]acetamide]: the figures for the IC50 on 12-lipoxygenase and at 5-lipoxygenase were 1 µM and 5 µM, respectively. For the same molecule, the ED40 in assay [1] turned out to be 17 mg/kg.
